The values that follow come from US6699868B2, “Pyridazinyl phenyl hydrazones useful against congestive heart failure” (Orion Corporation, priority 2000, dated 2004).

Where two headings read alike, the source gives them in different places.

For one data set, the system named is isolated heart. Put plainly: Effect in left ventricular pressure derivatives in isolated heart (Langendorff). The following applies: isolated guinea-pig heart, constant pressure 50 mmHg, 37° C., read-out: EC50 on maximal positive derivative of the left ventricular systolic pressure. Here is the method:
Experiment 2. Effect in left ventricular pressure derivatives in isolated heart
After sacrification the heart of a guinea-pig was rapidly excised and rinsed in oxygenated perfusion buffer. A cannula was inserted into the aorta and secured with a ligature. Retrograde perfusion began as soon as the heart was placed in a thermostatically controlled moist chamber of the Langendorff apparatus (Hugo Sachs Elektronik, KG). Modified Tyrode solution (37° C.), equilibrated in a thermostatically controlled bulb oxygenator with carbogen (95% O2 and 5% CO2), was used as a perfusion buffer. The composition of the Tyrode solution was (in mM): NaCl 135; MgCl2×6H2O 1; KCl 5; CaCl2×2H2O 2; NaHCO3 15; Na2HPO4×2H2O 1; glucose 10; pH 7.3-7.4. The perfusion buffer was delivered at the top of the oxygenator by a pump and driven automatically by its controller. Subsequently, the buffer was delivered into the bulbs of the oxygenator chamber by a rotating disk. It was dispersed by making a thin fluid film on a large inner oxygenator surface in O2/CO2 atmosphere leading to saturation of the perfusate with oxygen (partial pressure 660 mmHg at 37° C.).
The experiments were carried out under constant pressure condition (50 mmHg). After a short prestabilization (10 min) a latex balloon (size 4) was carefully placed into the left ventricle through the left pulmonary vein and the left atrium. The latex balloon was attached to a stainless-steel cannula coupled with a pressure transducer. The latex balloon, the cannula and the chamber of the pressure transducer were carefully filled with ethylene glycol/water (1:1) mixture avoiding any air-bubble. The isovolumetric left ventricular pressure was recorded through the pressure transducer. At the beginning of the experiment, the volume of the balloon was adjusted to obtain a diastolic pressure of approximately 5 mmHg. Before starting the experiment the heart was allowed to stabilise further for 30-50 min. The systolic and end-diastolic left ventricular pressures were recorded for calculating the maximal positive and negative derivatives of the left ventricular pressure.

The test system of another data set is skinned cardiac fiber. In words: Calcium sensitizing effect in skinned cardiac fiber. It is filed as cell-based, guinea-pig. The following applies: test compound 0.1-10 μM added cumulatively, calcium (pCa 6.0 or 6.2)-induced tension, room temperature; for Emax: Cavia porcellus, maximum effect, read-out: Change in force/ % change from control (maximum calcium sensitizing effect in skinned fiber). Here is the method: Experiment 1. Calcium sensitizing effect in skinned cardiac fiber
The heart of a guinea-pig was excised and perfused with ice-cold saponin (125 mg/l) skinning solution consisting of (mM): K^+-acetate 74.7. EGTA-Na2 10, MgSO4 5.4, ATP-Na2 4, MOPS 20, pH 7.0 (by 1 M KOH). Left ventricular papillary muscle was dissected and sonicated at 10 Watt for 60 s. The distance between ultrasound probe and the papillary muscle was 10 mm. The fibres (<200 μm in diameter) were dissected from the surface of sonicated papillary muscles in the same solution.
The fibre was glued between platinum wires, one attached to an isometric force transducer (type AE-801,SensoNor, Horten, Norway) and another to a micro manipulator. The fibre was relaxed in a solution consisting of (mM): EGTA-Na2 10, MgSO4 5.4, ATP-Na2 4, MOPS 20. The pH of the solution was adjusted to 7.0 and ionic strength to 0.16 M by the addition of KOH and K^+-acetate. Creatine kinase and creatine phosphate were not added as an ATP generating system because the developed tension was well sustained for the time required for experiment. The calculations for ionic strength and for free calcium (pCa 7.0-6.2) were performed using a suitable program. The fibres were stretched in relaxing solution until resting tension was just noticeable. When the calcium (pCa 6.0 or 6.2)-induced tension had reached steady state the test compound (final concentrations 0.1, 0.3, 1, 3,and 10 μM) was cumulatively added into the solution at 6 min intervals. All the experiments were carried out with fresh fibres at normal room temperature.

On to `CC(=NNc1ccc(C2=NNC(=O)CC2C)cc1)c1ccc(O)c(C)c1O` (stereo not drawn) [Example 49, 6-(4-{N-[1-(2,4-Dihydroxy-3-methylphenyl)ethylidene]hydrazino}phenyl)-5-methyl-4,5-dihydro-2H-pyridazin-3-one], for which the EC50 with isolated heart is 0.25 µM. Further, the “Change in force/ % change from control (maximum calcium sensitizing effect in skinned fiber)” value in the data set with skinned cardiac fiber was found to be 28.7 % change from control. For the molecule `COc1c(O)ccc(C=NNc2ccc(C3=NNC(=O)C[C@H]3C)cc2)c1[N+](=O)[O-]` [Example 2, (R)-6-{4-[N′-(4-Hydroxy-3-methoxy-2-nitro-benzylidene)-hydrazino]-phenyl}-5-methyl-4,5-dihydro-2H-pyridazin-3-one], the EC50 in the data set on isolated heart (Cavia porcellus) came to 0.02 µM. Also, the Emax in the data set on skinned cardiac fiber amounted to 207%.

As to `CC1CC(=O)NN=C1c1ccc(NN=C(c2ccc(O)cc2O)c2ccc(O)cc2O)cc1` (stereo not drawn) [Example 34, 6-(4-{N′-[Bis-(2,4-dihydroxy-phenyl)-methylene]-hydrazino}-phenyl)-5-methyl-4,5-dihydro-2H-pyridazin-3-one], the EC50 with isolated heart (Cavia porcellus) was found to be 0.11 µM. The Emax in the data set with skinned cardiac fiber came to 52.8%. The molecule `CC(=O)Nc1ccc(C(C)=NNc2ccc(C3=NNC(=O)CC3C)cc2)cc1` (stereo not drawn) [Example 37, N-[4-(1-{[4-(4-Methyl-6-oxo-1,4,5,6-tetrahydro-pyridazin-3-yl)-phenyl]-hydrazono}-ethyl)-phenyl]-acetamide] registered a melting point of 145 to 155 °C. Besides, the Emax with skinned cardiac fiber was 21.7%.

As to `CC(=NNc1ccc(-c2n[nH]c(=O)cc2C)cc1)c1ccc(O)cc1O` [Example 23, 6-{4-{N′-[1-(2,4-Dihydroxyphenyl)ethylidene]hydrazino}phenyl}-5-methyl-2H-pyridazin-3-one], the EC50 with isolated heart (Cavia porcellus) is 2.47 µM. The Emax in the data set with skinned cardiac fiber was 39.9%.

For the molecule `Cc1cc(=O)n(C)nc1-c1ccc(NN=Cc2ccc(O)cc2O)cc1` [Example 24, 6-{4-[N′-(2,4-Dihydroxybenzylidene)hydrazino]phenyl}-2,5-dimethyl-2H-pyridazin-3-one], the melting point fell in the range of 266 to 269 °C. For the same molecule, the Emax in the data set with skinned cardiac fiber turned out to be 42%. Taken in the same sequence, the figures for `CC(=NNc1ccc(C2=NNC(=O)CC2C)cc1)c1ccc(O)c(C)c1O` (stereo not drawn) [Example 38, 6-(4-{N′-[1-(2,4-Dihydroxy-3-methyl-phenyl)-ethylidene]-hydrazino}-phenyl)-5-methyl-4,5-dihydro-2H-pyridazin-3-one] were 244 to 248 °C and 32.2%. Take `COc1c(OC(C)=O)ccc(C(=NN)c2ccc(C3=NNC(=O)CC3C)cc2)c1[N+](=O)[O-]` (stereo not drawn) [Example 12, Acetic acid 2-Methoxy-4-{[4-(4-methyl-6-oxo-1,4,5,6-tetrahydro-pyridazin-3-yl)-phenyl]-hydrazonomethyl}-3-nitro-phenyl ester]: the melting point lay in the range of 220 to 223 °C. The molecule `CC1CC(=O)NN=C1c1ccc(C(=NN)c2ccc(O)c(C(=O)O)c2O)cc1` (stereo not drawn) [Example 56, 2,6-Dihydroxy-3-{[4-(4-methyl-6-oxo-1,4,5,6-tetrahydro-pyridazin-3-yl)-phenyl]-hydrazonomethyl}-benzoic acid] registered a melting point of 215 to 218 °C. Still for that read-out and setting: the figure for `CC1CC(=O)NN=C1c1ccc(NN=Cc2ccc(O)c([N+](=O)[O-])c2)cc1` (stereo not drawn) [Example 63, 6-{4-[N′-(4-Hydroxy-3-nitro-benzylidene)-hydrazino]-phenyl}-5-methyl-4,5-dihydro-2H-pyridazin-3-one] is 230 to 233 °C; for `O=c1[nH]nc(-c2ccc(NN=Cc3ccc(O)cc3O)cc2)c2ccccc12` [Example 18, 4-{4-[N′-(2,4-Dihydroxy-benzylidene)-hydrazino]-phenyl}-2H-phthalazin-1-one] it is 278 to 283 °C. Still for that read-out and setting: the figure for `CCC(=NNc1ccc(-c2ccc(=O)n(C)n2)cc1)c1ccc(O)cc1O` [Example 27, 6-{4-{N′-[1-(2,4-Dihydroxyphenyl)propylidene]hydrazino}phenyl}-2-methyl-2H-pyridazin-3-one] is 225 to 233 °C. Still for that read-out and setting: the figure for `CC1CC(=O)NN=C1c1ccc(C(=NN)c2ccc(C#N)cc2)cc1` (stereo not drawn) [Example 60, 4-{[4-(4-Methyl-6-oxo-1,4,5,6-tetrahydro-pyridazin-3-yl)-phenyl]-hydrazonomethyl}-benzonitrile] is 246 to 248 °C. For `CC1CC(=O)NN=C1c1ccc(NN=Cc2ccc(O)c(O)c2[N+](=O)[O-])cc1` (stereo not drawn) [Example 9, 6-{4-[N′-(3,4-Dihydroxy-2-nitro-benzylidene)-hydrazino]-phenyl}-5-methyl-4,5-dihydro-2H-pyridazin-3-one], the melting point fell in the range of 239 to 241 °C. `CCOC(=O)c1c(O)ccc(C(=NN)c2ccc(C3=NNC(=O)CC3C)cc2)c1O` (stereo not drawn) [Example 3, 2,6-Dihydroxy-3-{[4-(4-methyl-6-oxo-1,4,5,6-tetrahydro-pyridazin-3-yl)-phenyl]-hydrazonomethyl}-benzoic acid Ethyl Ester]: the melting point was 203 to 208 °C. On to `COc1c(O)ccc(C(C)=NNc2ccc(C3=NNC(=O)CC3C)cc2)c1[N+](=O)[O-]` (stereo not drawn) [Example 67, 6-(4-{N′-[1-(4-Hydroxy-3-methoxy-2-nitro-phenyl)-ethylidene]-hydrazino}-phenyl)-5-methyl-4,5-dihydro-2H-pyridazin-3-one], for which the melting point is 251 to 254 °C. On the same count and under the same terms, the figure for `CC1CC(=O)NN=C1c1ccc(NN=Cc2cccc(O)c2)cc1` (stereo not drawn) [Example 62, 6-{4-[N′-(3-Hydroxy-benzylidene)-hydrazino]-phenyl}-5-methyl-4,5-dihydro-2H-pyridazin-3-one] is 267 to 270 °C; for `O=c1[nH]nc(-c2ccc(NN=C(c3ccc(O)cc3)c3ccc(O)cc3O)cc2)c2ccccc12` [Example 16, 4-(4-{N′-[(2,4-Dihydroxy-phenyl)-(4-hydroxy-phenyl)-methylene]-hydrazino}-phenyl)-2H-phthalazin-1-one] it is 150 to 160 °C. The same measure, in the same setting: the figure for `CC1CC(=O)NN=C1c1ccc(NN=C(CCCC(=O)O)c2ccc(O)cc2O)cc1` (stereo not drawn) [Example 66, 5-(2,4-Dihydroxy-phenyl)-5-{[4-(4-methyl-6-oxo-1,4,5,6-tetrahydro-pyridazin-3-yl)-phenyl]-hydrazono}-pentanoic acid] is 235 to 240 °C; for `CC1CC(=O)NN=C1c1ccc(NN=Cc2cc([N+](=O)[O-])ccc2O)cc1` (stereo not drawn) [Example 5, 6-{4-[N′-(2-Hydroxy-5-nitro-benzylidene)-hydrazino]-phenyl}-5-methyl-4,5-dihydro-2H-pyridazin-3-one] it is 299 to 300 °C. Still for that read-out and setting: the figure for `CC(=O)Nc1ccc(C(=NN)c2ccc(C3=NNC(=O)CC3C)cc2)c(O)c1` (stereo not drawn) [Example 41, N-(3-Hydroxy-4-{[4-(4-methyl-6-oxo-1,4,5,6-tetrahydro-pyridazin-3-yl)-phenyl]-hydrazonomethyl}-phenyl)-acetamide] is 269 to 275 °C; for `O=c1[nH]nc(-c2ccc(NN=C(c3ccccc3)c3ccc(O)cc3O)cc2)c2ccccc12` [Example 15, 4-(4-{N′-[(2,4-Dihydroxy-phenyl)-phenyl-methylene]-hydrazino}-phenyl)-2H-phthalazin-1-one] it is 160 to 170 °C. For the molecule `CC(=O)c1c(O)ccc(C=NNc2ccc(C3=NNC(=O)CC3C)cc2)c1O` (stereo not drawn) [Example 39, 6-{4-[N′-(3-Acetyl-2,4-dihydroxy-benzylidene)-hydrazino]-phenyl}-5-methyl-4,5-dihydro-2H-pyridazin-3-one], the melting point lay within 268 to 270 °C.
